Laboratory results reported in patent US8476194B2.

Columns and labels:
Format in all cases: cell-based
Phytophthora capsici = experiment: In vitro fungitoxicity assay against Phytophthora capsici in copper-minus AS and copper-plus AS medium
Ustilago maydis = experiment: In vitro fungitoxicity assay against Ustilago maydis in copper-minus and copper-plus medium; settings: 1 μg/mL, calculated with Colby formula
[1] = test system: Leptosphaeria nodorum (LEPTNO); experiment: In vitro fungitoxicity assay against Leptosphaeria nodorum (LEPTNO) in copper-minus and copper-plus medium; settings: CuCl2 10 μM, no test compound, across experiments

Compound | % Inhn Plus copper Predicted (Phytophthora capsici; 0.050 μg/mL, calculated with Colby formula) | % Inhn. Plus copper Predicted (Ustilago maydis) | LEPTNO % Inhn. attributed to copper chloride alone [1] | % Inhn attributed to copper chloride alone (Phytophthora capsici; CuCl2 50 uM, no test compound, across experiments)
C/C(=N\NC(=O)c1ccc(Cl)cc1)c1cc(F)cc(F)c1O [Compound 96] | 7.2% | 53.6% |  | 
[Cl][Cu][Cl] [CuCl2, copper chloride] |  |  | 7.1 ± 6.0% | 4.5 ± 7.9%
